Experimental data: patent US20120115877A1, “Facially Amphiphilic Compounds, Compositions, And Uses Thereof In Treating Cancer” (POLYMEDIX, INC., priority 2010, published 2012)

Experiments:
Type in all cases: cell-based, human
Settings in all cases: 10 μM
COLO 205 = assay: NCI-60 screen, Colon Cancer
Description: (§1) Several compounds were tested at single concentrations (10 μM) against 59 different human tumor cell lines, representing leukemia, melanoma and cancers of the lung, colon, brain, ovary, breast, prostate, and kidney (see, Table 3). The human tumor cell lines of the cancer screening panel were grown in RPMI 1640 medium containing 5% fetal bovine serum and 2 mM L-glutamine. For a typical screening experiment, cells were inoculated into 96 well microtiter plates in 100 μL at plating densities ranging from 5,000 to 40,000 cells/well depending on the doubling time of individual cell lines. After cell inoculation, the microtiter plates were incubated at 37° C., 5% CO2, 95% air and 100% relative humidity for 24 hours prior to addition of the compounds.
(§2) After 24 hours, two plates of each cell line were fixed in situ with TCA, to represent a measurement of the cell population for each cell line at the time of drug addition (Tz). Compounds were solubilized in dimethyl sulfoxide at 400-fold the desired final maximum test concentration and stored frozen prior to use. At the time of drug addition, an aliquot of frozen concentrate was thawed and diluted to twice the desired final maximum test concentration with complete medium containing 50 μg/ml gentamicin. Additional four, 10-fold or ½ log serial dilutions were made to provide a total of five compound concentrations plus control. Aliquots of 100 μl of these different drug dilutions were added to the appropriate microtiter wells already containing 100 μl of medium, resulting in the required final compound concentrations.
(§3) Following drug addition, the plates were incubated for an additional 48 hours at 37° C., 5% CO2, 95% air, and 100% relative humidity. For adherent cells, the assay was terminated by the addition of cold TCA. Cells were fixed in situ by the gentle addition of 50 μl of cold 50% (w/v) TCA (final concentration, 10% TCA) and incubated for 60 minutes at 4° C. The supernatant was discarded, and the plates were washed five times with tap water and air dried. Sulforhodamine B (SRB) solution (100 μl) at 0.4% (w/v) in 1% acetic acid was added to each well, and plates were incubated for 10 minutes at room temperature. After staining, unbound dye was removed by washing five times with 1% acetic acid and the plates were air dried. Bound stain was subsequently solubilized with 10 mM trizma base, and the absorbance was read on an automated plate reader at a wavelength of 515 nm. For suspension cells, the methodology was the same except that the assay was terminated by fixing settled cells at the bottom of the wells by gently adding 50 μl of 80% TCA (final concentration, 16% TCA). Using the seven absorbance measurements (time zero, (Tz), control growth, (C), and test growth in the presence of drug at the five concentration levels (Ti)), the percentage growth was calculated at each of the compound concentrations levels. Percentage growth inhibition was calculated as:
(§4) [(Ti−Tz)/(C−Tz)]×100 for concentrations for which Ti>/=Tz
(§5) [(Ti−Tz)/Tz]×100 for concentrations for which Ti<Tz.
(§6) Three dose response parameters were calculated for each compound. Growth inhibition of 50% (GI50) was calculated from [(Ti−Tz)/(C−Tz)]×100=50, which is the compound concentration resulting in a 50% reduction in the net protein increase (as measured by SRB staining) in control cells during the compound incubation. The compound concentration resulting in total growth inhibition (TGI) was calculated from Ti=Tz. The LC50 (concentration of compound resulting in a 50% reduction in the measured protein at the end of the compound treatment as compared to that at the beginning) indicating a net loss of cells following treatment was calculated from [(Ti−Tz)/Tz]×100=−50. Values were calculated for each of these three parameters if the level of activity was reached; however, if the effect was not reached or was exceeded, the value for that parameter was expressed as greater or less than the maximum or minimum concentration tested.

HCT-15 = assay: NCI-60 screen, Colon Cancer
Description: as §1, §2, §3, §4, §5, §6

HT29 = assay: NCI-60 screen, Colon Cancer
Description: as §1, §2, §3, §4, §5, §6

SW-620 = assay: NCI-60 screen, Colon Cancer
Description: as §1, §2, §3, §4, §5, §6

SF-268 = assay: NCI-60 screen, CNS Cancer
Description: as §1, §2, §3, §4, §5, §6

SF-295 = assay: NCI-60 screen, CNS Cancer
Description: as §1, §2, §3, §4, §5, §6

SF-539 = assay: NCI-60 screen, CNS Cancer
Description: as §1, §2, §3, §4, §5, §6

SNB-19 = assay: NCI-60 screen, CNS Cancer
Description: as §1, §2, §3, §4, §5, §6

SNB-75 = assay: NCI-60 screen, CNS Cancer
Description: as §1, §2, §3, §4, §5, §6

U251 = assay: NCI-60 screen, CNS Cancer
Description: as §1, §2, §3, §4, §5, §6

LOX IMVI = assay: NCI-60 screen, Melanoma
Description: as §1, §2, §3, §4, §5, §6

MALME-3M = assay: NCI-60 screen, Melanoma
Description: as §1, §2, §3, §4, §5, §6

MDA-MB-435 = assay: NCI-60 screen, Melanoma
Description: as §1, §2, §3, §4, §5, §6

SK-MEL-28 = assay: NCI-60 screen, Melanoma
Description: as §1, §2, §3, §4, §5, §6

SK-MEL-2 = assay: NCI-60 screen, Melanoma
Description: as §1, §2, §3, §4, §5, §6

SK-MEL-5 = assay: NCI-60 screen, Melanoma
Description: as §1, §2, §3, §4, §5, §6

UACC-257 = assay: NCI-60 screen, Melanoma
Description: as §1, §2, §3, §4, §5, §6

UACC-62 = assay: NCI-60 screen, Melanoma
Description: as §1, §2, §3, §4, §5, §6

NCI/ADR-RES = assay: NCI-60 screen, Ovarian Cancer
Description: as §1, §2, §3, §4, §5, §6

OVCAR-3 = assay: NCI-60 screen, Ovarian Cancer
Description: as §1, §2, §3, §4, §5, §6

A498 = assay: NCI-60 screen, Renal Cancer
Description: as §1, §2, §3, §4, §5, §6

ACHN = assay: NCI-60 screen, Renal Cancer
Description: as §1, §2, §3, §4, §5, §6

CAKI-1 = assay: NCI-60 screen, Renal Cancer
Description: as §1, §2, §3, §4, §5, §6

RXF 393 = assay: NCI-60 screen, Renal Cancer
Description: as §1, §2, §3, §4, §5, §6

SN12C = assay: NCI-60 screen, Renal Cancer
Description: as §1, §2, §3, §4, §5, §6

TK-10 = assay: NCI-60 screen, Renal Cancer
Description: as §1, §2, §3, §4, §5, §6

UO-31 = assay: NCI-60 screen, Renal Cancer
Description: as §1, §2, §3, §4, §5, §6

| SMILES | Percent Growth (COLO 205) | Percent Growth (HCT-15) | Percent Growth (HT29) | Percent Growth (SW-620) | Percent Growth (SF-268) | Percent Growth (SF-295) | Percent Growth (SNB-19) | Percent Growth (SNB-75) | Percent Growth (LOX IMVI) | Percent Growth (MALME-3M) | Percent Growth (MDA-MB-435) | Percent Growth (SK-MEL-28) | Percent Growth (SK-MEL-2) | Percent Growth (SK-MEL-5) | Percent Growth (UACC-257) | Percent Growth (UACC-62) | Percent Growth (NCI/ADR-RES) | Percent Growth (OVCAR-3) | Percent Growth (A498) | Percent Growth (ACHN) | other results |
| --- | --- | --- | --- | --- | --- | --- | --- | --- | --- | --- | --- | --- | --- | --- | --- | --- | --- | --- | --- | --- | --- |
| N=C(N)NCCCCC(=O)Nc1cc(C(F)(F)F)cc(NC(=O)Nc2ccc(NC(=O)Nc3cc(C(F)(F)F)cc(NC(=O)CCCCNC(=N)N)c3OC3CCNC3)cc2)c1OC1CCNC1 (stereo not shown) [Compound B] | 55.41% | 61.39% | 59.66% | 69.71% | 49.93% | 38.86% | 49.16% | 19.48% | 59.57% | 83.13% | 48.12% | 68.29% | 60.98% | 50.91% | 75.89% | 75.91% | 87.71% | 45.06% | 66.45% | 62.45% | Percent Growth (SF-539): 30.8%; Percent Growth (U251): 37.71%; Percent Growth (CAKI-1): 56.42%; Percent Growth (RXF 393): 87.84%; Percent Growth (SN12C): 64.8%; Percent Growth (TK-10): 60.45%; Percent Growth (UO-31): 45.67% |
| NCCSc1cc(SCCN)c(C(F)(F)F)cc1NC(=O)c1cc(C(=O)Nc2cc(C(F)(F)F)c(SCCN)cc2SCCN)ncn1 [Compound F] | 126% | 62.31% | 56.34% | 18.57% | 32.42% | 57.66% | 49.54% | −20.24% | 6.66% | 80.15% | 70.62% | 83.94% | 46.77% | 62.3% | 76.46% | 51.23% | 54.76% | −15.5% | 69.6% | 20.02% | Percent Growth (SF-539): 65.73%; Percent Growth (U251): 23.67%; Percent Growth (CAKI-1): 31.42%; Percent Growth (RXF 393): 47.68%; Percent Growth (SN12C): 57.46%; Percent Growth (TK-10): 21.48%; Percent Growth (UO-31): 48.74% |
| NCCCc1cccc(-c2ccc3oc4ccc(-c5cccc(CCCN)c5)cc4c3c2)c1 [Compound G] | 26.37% | 49.71% | −51.14% | −7.997% | 75.18% | 65.4% | 88.57% | 66.47% | −75.08% | 105% | 62.07% | 102.1% | 72.07% | 89.15% | 44.84% | 72.92% | 83.66% | 18.54% | 92.26% | 36.71% | Percent Growth (SF-539): 86.73%; Percent Growth (CAKI-1): 56.68%; Percent Growth (RXF 393): 65.05%; Percent Growth (SN12C): 82.22%; Percent Growth (TK-10): 57.59%; Percent Growth (UO-31): 84.95% |
| NCCc1cc(Br)cc(C#Cc2cccc(C#Cc3cc(Br)cc(CCN)c3)c2)c1 [Compound A] | 1.203% | 11.61% | −89.31% | −73.58% | 61.55% | 3.17% | 27.06% | −2.087% | −76.91% | 106.8% | −16.19% | 79.76% | 3.515% | 80.5% | 68.25% | 26.03% | 23.97% | −35.66% | 84.01% | −46.91% | Percent Growth (U251): −64.65%; Percent Growth (CAKI-1): 70.66%; Percent Growth (RXF 393): −26.13%; Percent Growth (SN12C): 22.8%; Percent Growth (TK-10): 8.048%; Percent Growth (UO-31): 37.26% |
